Experimental data taken from ChEMBL document CHEMBL4673218, “Kojyl cinnamate esters are peroxisome proliferator-activated receptor α/γ dual agonists” (Bioorg Med Chem, 2018).
Activity calls are given as the source filed them. The calls are words filed in the database; no cut-off is given here.

Key:
[1] = Induction of adipogenesis in human AT-MSC assessed as adiponectin secretion at 300 uM in IDX medium incubated for 5 days by ELISA (reference value: 100 +/- 15 pg/ml); format: functional, Adipose tissue derived mesenchymal stem cell; conditions: time 5 day
[2] = tested on: Adipose tissue derived mesenchymal stem cell; test: Induction of adipogenesis in human AT-MSC cells assessed as increase in intracellular lipid accumulation at 30 uM in IDX medium incubated for 5 days by Oil Red O staining based inverted phase microscopy relative to IDX control; format: functional; conditions: time 5.0 day
[3] = Induction of adipogenesis in human AT-MSC assessed as adiponectin secretion at 30 uM in IDX medium incubated for 5 days by ELISA relative to IDX control; format: functional, Adipose tissue derived mesenchymal stem cell; conditions: time 5 day
[4] = tested on: Adipose tissue derived mesenchymal stem cell; test: Induction of adipogenesis in human AT-MSC cells assessed as increase in lipid droplet at 30 uM in IDX medium incubated for 5 days by Oil Red O staining based inverted phase microscopy relative to IDX control; format: functional; conditions: time 5.0 day
[5] = Induction of adipogenesis in human AT-MSC assessed as adiponectin secretion in IDX medium incubated for 5 days by ELISA; format: functional; conditions: adipose tissue derived mesenchymal stem cell
[6] = Induction of adipogenesis in human AT-MSC assessed as adiponectin secretion at 30 uM in IDX medium incubated for 5 days by ELISA (reference value: 100 +/- 15 pg/ml); format: functional, Adipose tissue derived mesenchymal stem cell; conditions: time 5 day
[7] = target: T1, PPAR alpha/gamma (Homo sapiens) (UniProt P37231+Q07869); test: Agonist activity at PPARalpha/PPARgamma in human NHEK cells assessed as upregulation of ACACB mRNA at 10 uM incubated for 3 days by qRT-PCR analysis; format: cell-based; conditions: time 3.0 day
[8] = target: T1, PPAR alpha/gamma (Homo sapiens); test: Agonist activity at PPARalpha/PPARgamma in human NHEK cells assessed as upregulation of FADS2 mRNA at 10 uM incubated for 3 days by qRT-PCR analysis; format: cell-based; conditions: filed as agonist, time 3.0 day
NHEK [9] = test: Inhibition of UVB-induced PTGS2 mRNA in human NHEK cells at 10 uM incubated for 24 hrs by qRT-PCR analysis; format: functional, cell-based
[10] = target: T2, Peroxisome proliferator-activated receptor alpha (Homo sapiens, UniProt Q07869); test: (§1) Binding affinity to human recombinant PPARalpha by Cheng-Prusoff equation based competitive binding TR-FRET assay
T2 sequence (Q07869 whole entry): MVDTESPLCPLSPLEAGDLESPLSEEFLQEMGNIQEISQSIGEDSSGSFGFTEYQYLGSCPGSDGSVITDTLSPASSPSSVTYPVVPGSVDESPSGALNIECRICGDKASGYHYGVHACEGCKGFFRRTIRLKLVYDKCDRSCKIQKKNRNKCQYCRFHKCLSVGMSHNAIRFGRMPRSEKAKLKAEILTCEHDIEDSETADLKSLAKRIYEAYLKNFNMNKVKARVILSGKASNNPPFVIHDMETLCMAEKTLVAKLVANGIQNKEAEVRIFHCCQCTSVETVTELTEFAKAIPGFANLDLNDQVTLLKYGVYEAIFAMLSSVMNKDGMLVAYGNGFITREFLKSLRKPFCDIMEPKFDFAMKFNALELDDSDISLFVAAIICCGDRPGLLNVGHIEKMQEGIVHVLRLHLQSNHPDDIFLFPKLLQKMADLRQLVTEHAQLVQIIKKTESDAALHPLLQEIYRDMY

[11] = target: T3, Peroxisome proliferator-activated receptor alpha (Homo sapiens) (UniProt Q07869); test: as §1; conditions: filed as agonist
T3 sequence (whole entry): T2 sequence (Q07869 whole entry)

[12] = target: T1, PPAR alpha/gamma (Homo sapiens); test: Agonist activity at PPARalpha/PPARgamma in human AT-MSC cells assessed as upregulation of FASN mRNA at 10 uM incubated for 3 days by qRT-PCR analysis; format: cell-based; conditions: Adipose tissue derived mesenchymal stem cell, time 3.0 day
NHEK [13] = test: Inhibition of UVB-induced PGE2 level in human NHEK cells at 10 uM incubated for 24 hrs by ELISA; format: functional, cell-based
[14] = target: T1, PPAR alpha/gamma (Homo sapiens); test: Agonist activity at PPARalpha/PPARgamma in human AT-MSC cells assessed as upregulation of SCD1 mRNA at 10 uM incubated for 3 days by qRT-PCR analysis; format: cell-based; conditions: Adipose tissue derived mesenchymal stem cell, filed as agonist, time 3.0 day
[15] = target: T1, PPAR alpha/gamma (Homo sapiens); test: Agonist activity at PPARalpha/PPARgamma in human AT-MSC cells assessed as upregulation of HMGCR mRNA at 10 uM incubated for 3 days by qRT-PCR analysis; format: cell-based; conditions: Adipose tissue derived mesenchymal stem cell, filed as agonist, time 3.0 day
[16] = target: T1, PPAR alpha/gamma (Homo sapiens); test: Agonist activity at PPARalpha/PPARgamma in human NHEK cells assessed as upregulation of HMGCS2 mRNA at 10 uM incubated for 3 days by qRT-PCR analysis; format: cell-based; conditions: filed as agonist, time 3.0 day
[17] = target: T1, PPAR alpha/gamma (Homo sapiens); test: Agonist activity at PPARalpha/PPARgamma in human AT-MSC cells assessed as upregulation of ACACB mRNA at 10 uM incubated for 3 days by qRT-PCR analysis; format: cell-based; conditions: Adipose tissue derived mesenchymal stem cell, time 3.0 day
[18] = target: T1, PPAR alpha/gamma (Homo sapiens); test: Agonist activity at PPARalpha/PPARgamma in human NHEK cells assessed as upregulation of FASN mRNA at 10 uM incubated for 3 days by qRT-PCR analysis; format: cell-based; conditions: time 3.0 day
[19] = target: T1, PPAR alpha/gamma (Homo sapiens); test: Agonist activity at PPARalpha/PPARgamma in human NHEK cells assessed as upregulation of SCD1 mRNA at 10 uM incubated for 3 days by qRT-PCR analysis; format: cell-based; conditions: filed as agonist, time 3.0 day
[20] = target: T1, PPAR alpha/gamma (Homo sapiens); test: Agonist activity at PPARalpha/PPARgamma in human AT-MSC cells assessed as upregulation of FABP4 mRNA at 10 uM incubated for 3 days by qRT-PCR analysis; format: cell-based; conditions: Adipose tissue derived mesenchymal stem cell, filed as agonist, time 3.0 day
[21] = target: T1, PPAR alpha/gamma (Homo sapiens); test: Agonist activity at PPARalpha/PPARgamma in human NHEK cells assessed as upregulation of FADS1 mRNA at 10 uM incubated for 3 days by qRT-PCR analysis; format: cell-based; conditions: filed as agonist, time 3.0 day
NHEK [22] = test: Inhibition of UVB-induced MMP1 level in human NHEK cells at 10 uM incubated for 24 hrs by ELISA; format: functional, cell-based
NHEK [23] = test: Inhibition of UVB-induced MMP1 mRNA in human NHEK cells at 10 uM incubated for 24 hrs by qRT-PCR analysis; format: functional, cell-based
[24] = target: T1, PPAR alpha/gamma (Homo sapiens); test: Agonist activity at PPARalpha/PPARgamma in human AT-MSC cells assessed as upregulation of HMGCS2 mRNA at 10 uM incubated for 3 days by qRT-PCR analysis; format: cell-based; conditions: Adipose tissue derived mesenchymal stem cell, filed as agonist, time 3.0 day
[25] = target: T1, PPAR alpha/gamma (Homo sapiens); test: Agonist activity at PPARalpha/PPARgamma in human AT-MSC cells assessed as upregulation of FADS2 mRNA at 10 uM incubated for 3 days by qRT-PCR analysis; format: cell-based; conditions: Adipose tissue derived mesenchymal stem cell, filed as agonist, time 3.0 day
[26] = target: T1, PPAR alpha/gamma (Homo sapiens); test: Agonist activity at PPARalpha/PPARgamma in human AT-MSC cells assessed as upregulation of adiponectin mRNA at 10 uM incubated for 3 days by qRT-PCR analysis; format: cell-based; conditions: Adipose tissue derived mesenchymal stem cell, filed as agonist, time 3.0 day
[27] = target: T1, PPAR alpha/gamma (Homo sapiens); test: Agonist activity at PPARalpha/PPARgamma in human NHEK cells assessed as upregulation of HMGCR mRNA at 10 uM incubated for 3 days by qRT-PCR analysis; format: cell-based; conditions: time 3.0 day
[28] = target: T4, Peroxisome proliferator-activated receptor gamma (Homo sapiens) (UniProt P37231); test: (§2) Binding affinity to human recombinant PPARgamma by Cheng-Prusoff equation based competitive binding TR-FRET assay; conditions: filed as agonist
T4 sequence (whole entry): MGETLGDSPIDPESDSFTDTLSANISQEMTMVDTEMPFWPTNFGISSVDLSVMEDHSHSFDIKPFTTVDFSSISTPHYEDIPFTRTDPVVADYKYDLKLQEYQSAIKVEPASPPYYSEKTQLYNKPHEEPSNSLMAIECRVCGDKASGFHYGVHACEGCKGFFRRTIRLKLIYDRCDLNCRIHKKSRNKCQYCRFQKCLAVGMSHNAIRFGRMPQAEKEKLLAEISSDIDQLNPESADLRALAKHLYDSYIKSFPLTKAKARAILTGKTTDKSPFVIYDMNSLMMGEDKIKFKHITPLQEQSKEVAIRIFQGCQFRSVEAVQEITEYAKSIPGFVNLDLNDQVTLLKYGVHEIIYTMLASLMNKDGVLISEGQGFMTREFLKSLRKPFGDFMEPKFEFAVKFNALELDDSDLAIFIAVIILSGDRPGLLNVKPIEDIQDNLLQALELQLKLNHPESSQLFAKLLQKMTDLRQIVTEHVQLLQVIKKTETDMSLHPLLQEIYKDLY

[29] = target: T5, Peroxisome proliferator-activated receptor gamma (Homo sapiens, UniProt P37231); test: as §2
T5 sequence (P37231 whole entry): T4 sequence (whole entry)

NHEK [30] = test: Inhibition of UVB-induced PGE2 level in human NHEK cells at 1 uM incubated for 24 hrs by ELISA; format: functional, cell-based
NHEK [31] = test: Inhibition of UVB-induced PTGS2 mRNA in human NHEK cells at 1 uM incubated for 24 hrs by qRT-PCR analysis; format: functional, cell-based
NHEK [32] = test: Inhibition of UVB-induced MMP1 level in human NHEK cells at 1 uM incubated for 24 hrs by ELISA; format: functional, cell-based
NHEK [33] = test: Inhibition of UVB-induced MMP1 mRNA in human NHEK cells at 1 uM incubated for 24 hrs by qRT-PCR analysis; format: functional, cell-based

## CC(=O)Oc1ccccc1C(=O)O [ASPIRIN]
[1]
  Activity: 197 pg/mL

## COc1ccccc1/C=C/C(=O)OCc1cc(=O)c(O)co1
[2]
  Activity: Active
[3]
  fold change (FC): 2.21
[4]
  Activity: Active
[5]
  EC50: 20.6 µM
[6]
  Activity: 221 pg/mL

## COc1cc(OC)c(/C=C/C(=O)OCc2cc(=O)c(O)co2)c(OC)c1
[6]
  Activity: 87 pg/mL

## COc1ccc(/C=C/C(=O)OCc2cc(=O)c(O)co2)cc1
[6]
  Activity: 138 pg/mL

## COc1ccc(/C=C/C(=O)OCc2cc(=O)c(O)co2)c(OC)c1OC
[6]
  Activity: 137 pg/mL

## COc1cccc(/C=C/C(=O)OCc2cc(=O)c(O)co2)c1OC
[7]
  Activity: inactive
[8]
  Activity: Active
NHEK [9]
  inhibition: Active
[10]
  Ki: 8 µM
[11]
  Activity: Dose-dependent effect
[2]
  Activity: Active
[12]; filed as agonist
  Activity: Active
NHEK [13]
  inhibition: Active
[3]
  fold change (FC): 2.81
[14]
  Activity: Active
[15]
  Activity: Active
[16]
  Activity: Active
[4]
  Activity: Active
[17]; filed as agonist
  Activity: Active
[18]
  Activity: inactive
[19]
  Activity: Active
[20]
  Activity: Active
[21]
  Activity: Active
NHEK [22]
  inhibition: Active
NHEK [23]
  inhibition: Active
[24]
  Activity: Active
[25]
  Activity: Active
[26]
  Activity: Active
[27]
  Activity: inactive
[5]
  EC50: 14.8 µM
[28]
  Activity: Dose-dependent effect
[29]
  Ki: 6.7 µM
[6]
  Activity: 281 pg/mL

## COc1cc(/C=C/C(=O)OCc2cc(=O)c(O)co2)cc(OC)c1
[6]
  Activity: 67 pg/mL

## COc1cc(OC)c(OC)cc1/C=C/C(=O)OCc1cc(=O)c(O)co1
[6]
  Activity: 103 pg/mL

## Cc1c(C)c2c(c(C)c1O)CCC(C)(COc1ccc(CC3SC(=O)NC3=O)cc1)O2 (configuration not stated) [TROGLITAZONE]
NHEK [30]
  inhibition: inactive
NHEK [31]
  inhibition: inactive
NHEK [32]
  inhibition: Active
NHEK [33]
  inhibition: Active
[5]
  EC50: 0.86 µM

## O=C(/C=C/c1ccc2c(c1)OCO2)OCc1cc(=O)c(O)co1
[6]
  Activity: 164 pg/mL

## Cc1cccc(Nc2cc(Cl)nc(SCC(=O)O)n2)c1C
[7]
  Activity: inactive
NHEK [9]
  inhibition: Active
[12]
  Activity: inactive
NHEK [13]
  inhibition: Active
[14]
  Activity: Active
[15]
  Activity: Active
[17]
  Activity: inactive
[18]
  Activity: inactive
[20]
  Activity: Active
NHEK [22]
  inhibition: Active
NHEK [23]
  inhibition: Active
[24]
  fold change (FC): 4.53
[25]
  Activity: Active
[26]
  Activity: Active
[27]
  Activity: inactive

## COc1ccc(/C=C/C(=O)OCc2cc(=O)c(O)co2)cc1OC
[6]
  Activity: 120 pg/mL

## COc1cccc(/C=C/C(=O)OCc2cc(=O)c(O)co2)c1
[2]
  Activity: Active
[3]
  fold change (FC): 2.65
[4]
  Activity: Active
[5]
  EC50: 36.6 µM
[6]
  Activity: 265 pg/mL

## COc1cc(/C=C/C(=O)OCc2cc(=O)c(O)co2)cc(OC)c1OC
[6]
  Activity: 137 pg/mL
